The values that follow come from patent US7282347B2, “Method for extracting quantitative information relating to interactions between cellular components” (Fisher Bioimage APS, priority 2000, dated 2007).

Structures are written as SMILES. Entries after “also recorded” stand apart in the source; their conditions may differ. Where two headings read alike, the source gives them in different places.

Experiment [1] concerns the target T1, Cys1 domain of PKCgamma (Cys1-EGFP) (Homo sapiens, UniProt P05129).
T1 construct: the 90 N-terminal amino acids of human PKCgamma (the Cys1 domain); expressed in transfected cells; host or cells: CHO
Description: redistribution of Cys1-EGFP to the plasma membrane in CHO cells. The experiment is classed as cell-based. Particulars: 100 nM PMA, 5 minutes. As to the method:
Time-lapse images of CHO cells expressing Cys1-EGFP, the fusion of EGFP to the C-terminal of the cys1 domain from human protein kinase C isoform gamma, before (a) and after 5 minutes treatment with 100 nM PMA.

Experiment [2] has as its target T2, Cys1-hGrb2 anchor probe and EGFP-Sos-Cterm detectable probe (Homo sapiens, UniProt P05129+P62993).
T2 construct: the 90 N-terminal amino acids of human PKCgamma (the Cys1 domain); expressed in transfected cells; host or cells: CHO
Kind of experiment: redistribution trap: CHO cells expressing Cys1-hGrb2 anchor probe and EGFP-Sos-Cterm detectable probe. It is filed as cell-based. Particulars: 100 nM PMA, 5 minutes. The method, then: (§1) This example describes the creation of another cell line suitable for screening compounds against the interaction between Grb2 and the C-terminal sequence of Sos (amino acids 1067 to 1332 of Sos). This is the same interaction pair described in Example 6, except that the anchor probe is based upon the Cys1 domain of protein kinase C isoform gamma, and therefore locates in unstimulated cells throughout the cytoplasm and nucleus. When these cells are treated with 100 nM PMA the anchor probe redistributes to the plasma membrane, and if an interaction occurs between anchor and detectable probes, the GFP fluorescence will also be seen to redistribute to the plasma membrane. […] Treatment with PMA is used to confirm that an interaction between anchor and detectable probes occurs in this system, since redistribution of fluorescence to the plasma membrane can only occur if interaction of the two probes has first taken place. This can be checked in CHO cells transfected with EGFP-Sos-Cterm alone, where PMA has no effect on the distribution of fluorescence.
(§2) CHO cells are stably co-transfected with the anchor probe Cys1-hGrb2 and the GFP-labelled detectable probe EGFP-Sos-Cterm as described in Example 2 and Example 6. […] The majority of cells in before PMA treatment have a rather general cytoplasmic and nuclear distribution of fluorescence. […]

Experiment [3] addresses T3, Cys1-hGrb2 anchor probe and EGFP-Sos-Cterm detectable probe (Homo sapiens, UniProt P62993).
T3 construct: the 90 N-terminal amino acids of human PKCgamma (the Cys1 domain); expressed in transfected cells; host or cells: CHO
The description is as above. It is filed as cell-based. Particulars: control cells with EGFP-Sos-Cterm alone, PMA. As to the method: as §1, §2

The next experiment addresses PDE4A4 (Homo sapiens, UniProt P27815). Description: formation of dense aggregates (spots) of PDE4A4 in transfected CHO cells. Particulars: read-out: EC50 for formation of dense PDE4A4 aggregates (spots) in the cytoplasm.
The subject of another experiment is PKAcat-GFP. Description: forskolin induced PKAcat-GFP translocation quantified by extraction procedure, FLIPR. The experiment is classed as cell-based. Particulars: Homo sapiens. The method, then: Upon increase in cellular cAMP (e.g. by stimulation of adenylate cyclase activity by forskolin) PKAcat dissociates from its regulatory subunits and spots “dissolves” into the cytosol. The total GFP intensity measured after removing cytosolic PKAcat-GFP through the extraction procedure is indicative of the level of non-activated, non-dissociated PKAcat.
In this example the extraction procedure is used to quantify a forskolin dose response in a PKAcat-GFP assay.
Cells are treated with forskolin in various conc. for 15 min. (remove spots). Cells are extracted (Formalin 0.2%/Triton-x 0.2%). Signal is read in FLIPR.
Dose response on the effect of forskolin to stimulate PKA translocation.

The test system of experiment [4] is CHO cells stably expressing HSPDE4A4B-GFP. Description: cellular cAMP content (kit RPA538) in CHO cells stably expressing HSPDE4A4B-GFP. It is filed as cell-based, Chinese hamster. Particulars: rolipram 0.03 μM to 3 μM, 16 to 18 hours. The method, then: (§3) After the incubation period, cAMP content is measured using a commercial kit from Amersham-Pharmacia Biotech, kit # RPA538, according to the manufacturers instructions.
(§4) The amount of cAMP/well was calculated using regression analysis from a cAMP standrad curve, as recommended by the manufacturers of the assay kit.
(§5) After the incubation period, cAMP content is measured using a commercial kit from Amersham-Pharnacia Biotech, kit # RPA538, according to the manufacturers instructions.
CHO cells stably expressing HSPDE4A4B-GFP (see Example 2), and untransfected CHO cells are seeded into individual wells of a 96-well microtiter plate at a density of 1.2×10^5 cells/well, and cultured for 16 to 18 hours in HAM F-12 medium with glutamax, 100 μg penicillin-streptomycin mixture ml^−1 and 10% FBS. […] After the treatment period, cAMP content is measured using a commercial kit from Amersham-Pharmacia Biotech, kit # RPA538, according to the manufacturers instructions.

A further experiment deals with untransfected CHO cells. Description: cellular cAMP content (kit RPA538) in untransfected CHO cells. It is filed as cell-based, Chinese hamster. The method, then: as §3, §4, §5
CHO cells stably expressing HSPDE4A4B-GFP (see Example 2), and untransfected CHO cells are seeded into individual wells of a 96-well microtiter plate at a density of 1.2×10^5 cells/well, and cultured for 16 to 18 hours in HAM F-12 medium with glutamax, 100 μg penicillin-streptomycin mixture ml^−1 and 10% FBS. After 16 to 18 hours incubation, cells are treated for 60 minutes with various concentrations of forskolin. After the treatment period, cAMP content is measured using a commercial kit from Amersham-Pharmacia Biotech, kit # RPA538, according to the manufacturers instructions.

Experiment [5] has as its target T4, HSPDE4A4-SosA anchor probe and hGrb2-EGFP detectable probe (Homo sapiens, UniProt P27815+Q07890).
T4 construct: expressed in transfected cells; host or cells: CHO
Description: redistribution trap: CHO cells co-transfected with HSPDE4A4-SosA anchor probe and hGrb2-EGFP detectable probe. It is filed as cell-based. Particulars: 10 μM RP73401 for 75 minutes in presence of 10 micromolar rolipram. The source says: Sos is a guanine nucleotide exchange factor responsible for activation Ras-like GTPases, Grb2 an adaptor component responsible for recuiting Sos to the activated receptor. In this example the anchor probe is based on HSPDE4A4. CHO cells are stably co-transfected with anchor probe HSPDE4A4-SosA and “detectable” probe hGrb2-EGFP as described in Example 2 and Example 3. The anchor probe is selected for with zeocin, and the detectable probe with neomycin (G418). […] The transfected cells are a mixed non-clonal population.
The transfected cells are a mixed non-clonal population.

T4 sequence (P27815+Q07890 fused): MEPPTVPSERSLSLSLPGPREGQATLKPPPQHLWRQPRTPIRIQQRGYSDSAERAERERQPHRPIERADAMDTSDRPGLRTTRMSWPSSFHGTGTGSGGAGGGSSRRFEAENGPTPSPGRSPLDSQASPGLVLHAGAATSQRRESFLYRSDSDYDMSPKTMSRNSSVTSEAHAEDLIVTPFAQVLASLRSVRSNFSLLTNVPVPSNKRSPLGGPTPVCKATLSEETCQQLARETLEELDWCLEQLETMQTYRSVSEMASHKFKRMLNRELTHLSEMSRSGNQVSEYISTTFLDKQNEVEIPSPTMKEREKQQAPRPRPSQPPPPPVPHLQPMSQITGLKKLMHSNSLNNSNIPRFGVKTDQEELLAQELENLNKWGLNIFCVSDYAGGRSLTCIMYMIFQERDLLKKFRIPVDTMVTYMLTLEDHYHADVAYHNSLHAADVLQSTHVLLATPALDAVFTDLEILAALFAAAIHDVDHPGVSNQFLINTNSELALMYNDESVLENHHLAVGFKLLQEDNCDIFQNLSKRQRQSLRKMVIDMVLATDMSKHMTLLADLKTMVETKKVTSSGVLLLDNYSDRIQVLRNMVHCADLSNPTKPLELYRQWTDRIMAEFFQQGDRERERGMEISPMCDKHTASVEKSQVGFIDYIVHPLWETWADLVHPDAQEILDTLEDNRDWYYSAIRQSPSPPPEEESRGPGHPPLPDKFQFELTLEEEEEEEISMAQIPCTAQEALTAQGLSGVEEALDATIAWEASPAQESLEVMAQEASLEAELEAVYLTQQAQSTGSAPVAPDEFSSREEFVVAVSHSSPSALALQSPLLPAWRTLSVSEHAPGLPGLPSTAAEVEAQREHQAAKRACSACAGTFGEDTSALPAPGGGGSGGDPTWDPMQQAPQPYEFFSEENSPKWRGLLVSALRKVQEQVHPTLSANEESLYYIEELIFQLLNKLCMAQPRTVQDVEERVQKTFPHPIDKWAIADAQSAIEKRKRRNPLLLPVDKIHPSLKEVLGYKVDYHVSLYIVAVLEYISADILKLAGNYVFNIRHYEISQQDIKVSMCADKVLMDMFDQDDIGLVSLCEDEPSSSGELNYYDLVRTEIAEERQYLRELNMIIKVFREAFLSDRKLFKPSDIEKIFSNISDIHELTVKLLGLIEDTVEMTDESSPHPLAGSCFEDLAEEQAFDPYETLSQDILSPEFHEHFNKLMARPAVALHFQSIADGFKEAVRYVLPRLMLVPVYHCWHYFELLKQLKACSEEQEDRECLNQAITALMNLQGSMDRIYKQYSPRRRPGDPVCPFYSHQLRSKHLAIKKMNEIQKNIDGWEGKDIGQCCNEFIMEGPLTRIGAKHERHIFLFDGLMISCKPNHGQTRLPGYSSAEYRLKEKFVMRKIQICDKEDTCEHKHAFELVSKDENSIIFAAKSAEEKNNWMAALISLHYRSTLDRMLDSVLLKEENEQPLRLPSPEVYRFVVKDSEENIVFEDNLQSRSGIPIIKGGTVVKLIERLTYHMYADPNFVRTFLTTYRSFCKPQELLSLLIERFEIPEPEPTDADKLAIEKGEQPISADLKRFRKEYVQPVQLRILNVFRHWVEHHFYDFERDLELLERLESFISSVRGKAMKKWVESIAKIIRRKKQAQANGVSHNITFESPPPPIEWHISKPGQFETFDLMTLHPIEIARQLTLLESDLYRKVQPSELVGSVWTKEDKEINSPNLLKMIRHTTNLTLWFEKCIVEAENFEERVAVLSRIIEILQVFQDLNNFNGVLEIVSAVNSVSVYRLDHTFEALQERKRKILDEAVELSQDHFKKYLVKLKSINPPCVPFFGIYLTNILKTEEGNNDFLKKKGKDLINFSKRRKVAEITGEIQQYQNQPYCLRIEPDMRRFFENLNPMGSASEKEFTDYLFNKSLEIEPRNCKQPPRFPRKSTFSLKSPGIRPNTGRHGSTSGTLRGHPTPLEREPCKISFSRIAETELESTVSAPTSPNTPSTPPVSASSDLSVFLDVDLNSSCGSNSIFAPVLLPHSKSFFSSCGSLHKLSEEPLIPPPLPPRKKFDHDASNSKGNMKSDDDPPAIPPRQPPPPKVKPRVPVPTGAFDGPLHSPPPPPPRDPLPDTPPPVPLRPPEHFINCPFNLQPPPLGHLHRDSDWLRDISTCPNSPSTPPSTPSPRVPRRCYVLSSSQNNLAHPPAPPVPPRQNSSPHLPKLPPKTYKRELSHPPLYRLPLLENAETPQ
T4 sequence (P62993 whole entry partner): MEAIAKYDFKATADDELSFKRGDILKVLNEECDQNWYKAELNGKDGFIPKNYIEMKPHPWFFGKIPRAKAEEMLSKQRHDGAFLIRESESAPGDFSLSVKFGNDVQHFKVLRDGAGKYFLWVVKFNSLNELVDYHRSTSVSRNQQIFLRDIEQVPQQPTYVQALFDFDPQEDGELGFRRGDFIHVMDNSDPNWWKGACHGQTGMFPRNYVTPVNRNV
T3 sequence (P62993 whole entry, looked up, the tested form may be a part): as the sequence (P62993 whole entry partner) above
PDE4A4, sequence (P27815 whole entry): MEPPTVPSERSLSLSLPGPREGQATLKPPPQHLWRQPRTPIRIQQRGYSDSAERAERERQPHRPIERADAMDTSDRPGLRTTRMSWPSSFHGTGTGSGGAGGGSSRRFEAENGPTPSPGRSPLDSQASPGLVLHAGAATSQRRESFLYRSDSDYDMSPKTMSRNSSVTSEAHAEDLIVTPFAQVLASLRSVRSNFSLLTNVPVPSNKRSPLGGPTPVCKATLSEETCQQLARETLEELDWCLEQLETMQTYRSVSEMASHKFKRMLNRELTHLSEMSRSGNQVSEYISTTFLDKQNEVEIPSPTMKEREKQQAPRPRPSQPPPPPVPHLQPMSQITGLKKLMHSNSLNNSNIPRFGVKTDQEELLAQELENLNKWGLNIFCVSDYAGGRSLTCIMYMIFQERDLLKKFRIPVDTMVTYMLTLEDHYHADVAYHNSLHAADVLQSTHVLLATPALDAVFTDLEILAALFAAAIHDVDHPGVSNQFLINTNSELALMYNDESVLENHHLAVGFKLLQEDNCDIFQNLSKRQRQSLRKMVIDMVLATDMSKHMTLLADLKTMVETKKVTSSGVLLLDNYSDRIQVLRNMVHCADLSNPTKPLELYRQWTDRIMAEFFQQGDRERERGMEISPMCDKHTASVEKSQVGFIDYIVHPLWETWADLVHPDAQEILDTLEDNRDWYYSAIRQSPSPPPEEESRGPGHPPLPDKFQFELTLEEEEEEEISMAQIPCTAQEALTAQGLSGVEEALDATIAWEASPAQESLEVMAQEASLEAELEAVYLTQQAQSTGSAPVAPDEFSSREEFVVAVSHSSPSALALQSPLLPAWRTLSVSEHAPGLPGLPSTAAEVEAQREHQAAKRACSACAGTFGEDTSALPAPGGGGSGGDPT

`CCCCCCCCCCCCCC(=O)O[C@@H]1[C@@H](C)[C@@]2(O)[C@@H](C=C(CO)C[C@]3(O)C(=O)C(C)=C[C@@H]23)[C@@H]2C(C)(C)[C@]12OC(C)=O` [PMA, phorbol-12-myristate-13-acetate]: in experiment [1], the “redistribution of Cys1-EGFP” value is “redistributes from the cytoplasm and nucleus to the plasma membrane”. In addition, the “redistribution of EGFP-Sos-Cterm fluorescence” value in experiment [2] is listed as “measurable shift in fluorescence to the plasma membrane”. The “distribution of fluorescence in CHO cells transfected with EGFP-Sos-Cterm alone” value in experiment [3] is given as “no effect”.
For the compound `O=c1c2cccnc2n(-c2cccc([N+](=O)[O-])c2)c(=O)n1Cc1ccncc1` [RS25344], on PDE4A4, the EC50 stood at 20 nM.
Regarding `C=C[C@@]1(C)CC(=O)[C@]2(O)[C@@]3(C)[C@@H](O)CCC(C)(C)[C@@H]3[C@H](O)[C@H](OC(C)=O)[C@@]2(C)O1` [forskolin], the EC50 was around 3000 nM in the experiment with PKAcat-GFP (0.25 h, forskolin 15 min, extraction Formalin 0.2%/Triton-x 0.2%, FLIPR, read-out: ED50 of forskolin dose response in PKAcat-GFP assay) and 3280 nM in the experiment with PKAcat-GFP (FIG. 18 dose response, read-out: calculated EC50 for forskolin to stimulate PKA translocation).
With `COc1ccc(C2CNC(=O)C2)cc1OC1CCCC1` (stereo not shown) [rolipram], the “cellular cAMP concentration, rolipram treatment” value in experiment [4] is “no appreciable increase”; in the experiment with untransfected CHO cells (rolipram 0.03 μM to 3 μM, 16 to 18 hours), “no appreciable increase”. Further, the “cellular cAMP, rolipram 10 μM” value in the experiment with untransfected CHO cells (10 μM rolipram, probably not significant) is listed as “slight rise”.
With `COc1ccc(C(=O)Nc2c(Cl)cncc2Cl)cc1OC1CCCC1` [RP73401, Piclamilast], the “effect on rolipram-induced GFP-bright spots” value in experiment [5] was “spots disappear; also recorded: dissolves rolipram-induced spots”.
